Test results published in article PMC5622171 (Nature Communications, 2017).

Target: T1, hPXR (Homo sapiens, UniProt O75469)
T1 sequence (O75469 1-434): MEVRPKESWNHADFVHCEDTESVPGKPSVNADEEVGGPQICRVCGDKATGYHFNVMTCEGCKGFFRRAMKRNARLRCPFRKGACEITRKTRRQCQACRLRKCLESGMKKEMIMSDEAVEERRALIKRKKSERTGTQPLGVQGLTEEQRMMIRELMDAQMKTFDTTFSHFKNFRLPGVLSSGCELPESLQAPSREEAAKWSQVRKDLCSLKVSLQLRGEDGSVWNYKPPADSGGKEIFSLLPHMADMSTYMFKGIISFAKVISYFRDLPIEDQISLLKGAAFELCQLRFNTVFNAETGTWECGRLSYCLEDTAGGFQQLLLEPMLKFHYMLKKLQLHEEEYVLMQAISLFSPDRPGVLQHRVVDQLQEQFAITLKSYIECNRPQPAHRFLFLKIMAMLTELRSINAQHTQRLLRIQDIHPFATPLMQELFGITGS
Test: hPXR transactivation assay, HepG2 stable cell line, agonistic mode

## COc1ccc(OC)c(-n2nnc(S(=O)(=O)c3ccc(C(C)(C)C)cc3)c2C)c1 [SPA70]
  Effect on basal activity of hPXR: very weakly inhibited the basal activity
